Literature values in US20150320675A1, “Modified Release Osmotic Pump for PH-Responsive Drug Delivery” (UNIVERSITY OF UTAH RESEARCH FOUNDATION, priority 2013, published 2015).

How the values were obtained:
reverse transcriptase = reverse transcriptase (Human immunodeficiency virus type 1 group M subtype B, UniProt P04585)

Which “non-nucleoside reverse transcriptase inhibition activity” value (reverse transcriptase) does the source give for `Cc1cc(C)cc(C(=O)c2c(C(C)C)c(=O)[nH]c(=O)n2CC2CC2)c1` [IQP-0528, 1-(cyclopropylmethyl)-6-(3,5-dimethylbenzoyl)-5-isopropylpyrimidine-2,4(1H,3H)-dione] here?
The value was “potent nanomolar”.

What about the entry inhibition activity (entry) of the same compound?
Its entry inhibition activity is “potent nanomolar”.
